Laboratory results from patent publication US11072598B2, “Somatostatin modulators and uses thereof” (CRINETICS PHARMACEUTICALS, INC., priority 2017, dated 2021).
pEC50: −log10 of the molar value.

These molecules were tested against T1, human somatostatin receptor subtype 2 (Homo sapiens, UniProt P30874) (assay: cAMP functional assay for SSTR2 agonists). Details: inhibition of cAMP activities via human SST2 receptor (SSTR2), CHO-K1 cells; read-out: EC50.
T1 construct: expressed in transfected cells
T1 sequence (P30874 whole entry): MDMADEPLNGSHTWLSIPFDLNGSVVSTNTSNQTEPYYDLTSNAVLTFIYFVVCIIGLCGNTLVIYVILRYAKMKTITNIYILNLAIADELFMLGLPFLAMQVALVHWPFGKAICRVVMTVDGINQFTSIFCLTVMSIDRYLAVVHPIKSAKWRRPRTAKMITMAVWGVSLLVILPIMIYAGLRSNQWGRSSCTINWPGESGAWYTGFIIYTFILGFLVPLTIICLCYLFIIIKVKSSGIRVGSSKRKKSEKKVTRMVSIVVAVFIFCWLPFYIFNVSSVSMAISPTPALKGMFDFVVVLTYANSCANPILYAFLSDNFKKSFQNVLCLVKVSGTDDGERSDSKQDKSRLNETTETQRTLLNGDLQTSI
Assay type: cell-based
Excerpt: General overview: All five SSTR subtypes are Gi coupled G-protein coupled receptors (GPCRs) that lead to decreases in intracellular cyclic AMP (cAMP) when activated by an agonist. Therefore, measurement of intracellular cAMP levels can be used to assess whether compounds of the invention are agonists of SSTR subtypes (John Kelly, Troy Stevens, W. Joseph Thompson, and Roland Seifert, Current Protocols in Pharmacology, 2005, 2.2.1-2.2). One example of an intracellular cAMP assay is described below. cAMP assay protocol:
Four days prior to the assay, 5,000 Chinese hamster ovary cells (CHO-K1, ATCC #CCL-61) stably expressing the human somatostatin receptor subtype 2 are plated in each well of a 96-well tissue culture-treated plate in Ham's F12 growth media (ThermoFisher #10-080-CM) supplemented with 10% donor bovine serum (Gemini Bio-Products #100-506), 100 U/mL penicillin; 100 ug/mL streptomycin; 2 mM L-glutamine (Gemini Bio-Products #400-110) and 0.2 mg/mL hygromycin B (GoldBio #31282-04-9). The cells are cultured at 37° C., 5% CO2 and 95% humidity. On the day of the assay, the media is aspirated and the cells are treated with 50 μL of 1.6 μM NKH477 (Sigma #N3290) plus various dilutions of compounds of the invention in assay buffer [1× Hank's Balanced Salt Solution (ThermoFisher #SH3058802), 0.5 mM HEPES pH 7.4, 0.1% bovine serum albumin, 0.2 mM 3-Isobutyl-1-methylxanthine (IBMX, VWR #200002-790)]. The cells are incubated for 20 minutes at 37° C. […] The cells are treated with 50 μL of lysis buffer (HRTF cAMP kit, Cisbio). The lysate is transferred to 384-well plates and cAMP detection and visualization antibodies are added and incubated for 1-24 hours at room temperature. The time-resolved fluorescent signal is read with a Tecan M1000Pro multiplate reader. The intracellular cAMP concentrations are calculated by regression to a standard curve and are plotted vs. the concentration of the compounds of the invention and the EC50 of the compounds are calculated using standard methods. All data manipluations are in GraphPad Prism v6.
Molecule `Cc1cc(F)cc(-c2cnc(N)c(-c3nc4cc(Cl)ccc4[nH]3)c2N2CC[C@@H](N)[C@H](C#N)C2)c1` (relative stereo) [Compound 1-42, trans-4-amino-1-[2-amino-3-(5-chloro-1H-1,3-benzodiazol-2-yl)-5-(3-fluoro-5-methylphenyl)pyridin-4-yl]piperidine-3-carbonitrile] has a pEC50 greater than 8.00.
With `Cc1cc(F)cc(-c2cnc(Cl)c(-c3nc4cc(F)ccc4[nH]3)c2N2CCC(N)CC2)c1` [Compound 2-11, 1-[2-chloro-3-(5-fluoro-1H-1,3-benzodiazol-2-yl)-5-(3-fluoro-5-methylphenyl)pyridin-4-yl]piperidin-4-amine] the pEC50 was greater than 8.00.
Work on `COc1ccc2[nH]c(-c3nncc(-c4cc(C)cc(F)c4)c3N3CCC(N)CC3)cc2c1` [Compound 3-9, 1-[5-(3-fluoro-5-methylphenyl)-3-(5-methoxy-1H-indol-2-yl)pyridazin-4-yl]piperidin-4-amine] yielded a pEC50 greater than 8.00.
Work on `CONC(=O)c1ccc2[nH]c(-c3c(N)ncc(-c4cc(C)cc(F)c4)c3N3CCC(N)CC3)nc2c1` [Compound 1-23, 2-[2-amino-4-(4-aminopiperidin-1-yl)-5-(3-fluoro-5-methylphenyl)pyridin-3-yl]-N-methoxy-1H-1,3-benzodiazole-5-carboxamide] yielded a pEC50 of 7.00 to 8.00.
For `COc1cc(C)cc(-c2cnc(N)c(-c3nc4cc(F)cc(F)c4[nH]3)c2N2CCC(N)CC2)c1` [Compound 1-80, 4-(4-aminopiperidin-1-yl)-3-(5,7-difluoro-1H-1,3-benzodiazol-2-yl)-5-(3-methoxy-5-methylphenyl)pyridin-2-amine], the pEC50 was greater than 8.00.
`COc1ncc(-c2cc(C)cc(F)c2)c(N2CCC(N)CC2)c1-c1nc2cc(Cl)ncc2[nH]1` [Compound 2-9] gave a pEC50 greater than 8.00.
`COC(=O)Nc1ccc2[nH]c(-c3c(N)ncc(-c4cc(C)cc(F)c4)c3N3CCC(N)CC3)nc2c1` [Compound 1-45, methyl N-{2-[2-amino-4-(4-aminopiperidin-1-yl)-5-(3-fluoro-5-methylphenyl)pyridin-3-yl]-1H-1,3-benzodiazol-5-yl}carbamate] was tested, and the pEC50 was greater than 8.00.
In the case of `N#Cc1cc(F)c2[nH]c(-c3c(N)ncc(-c4cc(F)cc(Cl)c4)c3N3CCC(N)CC3)nc2c1` [Compound 1-85, 2-[2-amino-4-(4-aminopiperidin-1-yl)-5-(3-chloro-5-fluorophenyl)pyridin-3-yl]-7-fluoro-1H-1,3-benzodiazole-5-carbonitrile], the pEC50 was greater than 8.00.
Molecule `Cc1cc(F)cc(-c2cnnc(-c3[nH]c4cc(Cl)ccc4c3Cl)c2N2CCC(N)CC2)c1` [Compound 3-14, 1-[3-(3,6-dichloro-1H-indol-2-yl)-5-(3-fluoro-5-methylphenyl)pyridazin-4-yl]piperidin-4-amine] has a pEC50 greater than 8.00.
`Cc1cc(F)cc(-c2cnc(N(C)C)c(-c3nc4cc(F)cc(F)c4[nH]3)c2N2CCC(N)CC2)c1` [Compound 4-5, 4-(4-aminopiperidin-1-yl)-3-(5,7-difluoro-1H-1,3-benzodiazol-2-yl)-5-(3-fluoro-5-methylphenyl)-N,N-dimethylpyridin-2-amine] showed a pEC50 greater than 8.00.
Work on `COc1ncc(-c2cc(F)cc(F)c2)c(N2CCC(N)CC2)c1-c1nc2cc(Cl)ccc2[nH]1` [Compound 2-14, 1-[3-(5-chloro-1H-1,3-benzodiazol-2-yl)-5-(3,5-difluorophenyl)-2-methoxypyridin-4-yl]piperidin-4-amine] yielded a pEC50 of 7.00 to 8.00.
In the case of `Cc1cc(Cl)cc(-c2cnc(N)c(C=NOC(C)C)c2N2CCC(N)CC2)c1` [Compound 1-37], the pEC50 was greater than 8.00.
`Cc1cc(F)cc(-c2cnnc(-c3cc4cccc(C#N)c4[nH]3)c2N2CCC(N)CC2)c1` [Compound 3-23, 2-[4-(4-aminopiperidin-1-yl)-5-(3-fluoro-5-methylphenyl)pyridazin-3-yl]-1H-indole-7-carbonitrile] gave a pEC50 greater than 8.00.
`Cc1cc(F)cc(-c2cnnc(-c3[nH]c4cc(C#N)ccc4c3C#N)c2N2CCC(N)CC2)c1` [Compound 3-26, 2-[4-(4-aminopiperidin-1-yl)-5-(3-fluoro-5-methylphenyl)pyridazin-3-yl]-1H-indole-3,6-dicarbonitrile] showed a pEC50 greater than 8.00.
